Experimental findings from patent publication US20260174786A1, “A NITROGEN-CONTAINING SPIROCYCLIC COMPOUND, PHARMACEUTICAL COMPOSITION AND USE THEREOF” (Prime Gene Therapeutics Co., Ltd., priority 2022, published 2026) are described below.

Series [1] is described as follows: Permeability experiment of Caco-2 cells. Type of series: in vitro ADME. Particulars: human, pH 7.4, Caco-2, 5 μM. On the procedure: (§1) 1. Transwell plate preheating: before laying cells, adding 100 μL of culture medium to the upper layer of Transwell plate and 600 μL of culture medium to the lower layer of Transwell plate, Pre-incubating at 37° C. under 5% CO2 for 1 hour. 2. Treating Caco-2 cells by adding 100 μL of cell suspension (4×10^5 cells/mL) to each well, and cultivating in a 37° C., 5% CO2 incubator for 14-21 days. 3. Changing the cell culture medium every other day within 7 days, and changing it daily after 7 days. 4. Using EVOM3 to measure single-layer epithelial to epithelial resistance (TEER).
(§2) 1. Preheating HBSS (10 mM HEPES, pH 7.4) buffer, cleaning the upper and lower layers of Transwell plates twice each, and incubating at 37° C. for 30 minutes. 2. Working solution: Diluting the test compound HBSS buffer with 1 mM DMSO to 5 μM. 3. A-B direction: Adding 200 μL of 5 μM working solution to the upper layer and 600 μL of HBSS buffer solution to the lower layer; 4. B-A direction: Adding 600 μL of 5 μM working solution to the lower layer and 200 μL of HBSS buffer to the upper layer, and incubating for 2 hours. 5. C0 sample: Taking 100 μL of working solution to a sample plate containing 400 μL of methanol (internal standard). 6. After incubation for 2 hours, taking 100 μL from the upper and lower layers of the chamber to the sample plates containing 400 μL of methanol (internal standard). 7. Mixing and centrifuging, mixing the supernatant with a certain amount of water, and using the sample for LC-MS/MS data analysis. 8. After completing step 6, adding 200 μL of 100 μM fluorescent yellow solution to the upper chamber and 600 μL of HBSS buffer salt solution to the lower chamber. Incubating at 37° C. and 5% CO2 for 30 minutes, and taking out 50 μL of each into a black plate to read the fluorescence value. 9. Data analysis.

Another series has as its system Caco-2 cells. As to the kind of experiment: Permeability experiment of Caco-2 cells. Type of series: in vitro ADME. Particulars: Caco-2, 5 μM. On the procedure: as §1, §2
In general terms: Caco-2 cells form a polarised layer with tight junctions and transporters.

In the case of `O=C(c1ccc(F)cn1)N1CC[C@@]2(C[C@@H](O)c3cc(-c4ccccc4C4CC4)ccc32)C1` [Example 21, ((1S,3R)-5-(2-cyclopropylphenyl)-3-hydroxy-2,3-dihydrospiro[indene-1,3′-pyrrolidine]-1′-yl)(5-fluoropyridin-2-yl)ketone], in series [1] (2 hours), the Papp A→B (as a rule, the apparent permeability from the apical to the basolateral side of a cell layer) at 2 h, 5 μM was 20.9 ×10⁻⁶ cm/s and the Papp B→A – broadly, the apparent permeability from the basolateral to the apical side of a cell layer – at 2 h, 5 μM came out at 9.58 ×10⁻⁶ cm/s. For the same molecule, the efflux ratio at 2 h, 5 μM in series [1] (read-out: External ratio) came out at 0.46. In the series on Caco-2 cells, the “Recover A→B %” value came to 49.40% and the “Recover B→A %” value was found to be 68.20%.
